In patent US20220364056A1, “SHORT-CHAIN FATTY ACID PENTANOATE AS ENHANCER FOR CELLULAR THERAPY AND ANTI-TUMOR THERAPY” (PHILIPPS-UNIVERSITÄT MARBURG, priority 2019, published 2022):

What was measured:
[1] = system: murine ROR1-recognizing CAR T lymphocytes; experiment: murine ROR1-specific CAR T cells stimulated with HDACi, ELISA and flow cytometry; type: cell-based; conditions: three days of stimulation
Description: (A) Experimental design for the analysis HDACi-treated ROR1-specific CD8^+ CAR T cells (CARROR1+HDAC). (B and C) The production of TNF-α and IFN-γ from CAR T cells was measured by ELISA and flow cytometry analysis after three days of stimulation with the indicated HDACi. (D) The surface expression of CD25 on CAR T cells was measured by flow cytometry analysis after three days of stimulation with the indicated HDACi (n=3 combined from 3 independent experiments). (E and F) After three days of pre-treatment with pentanoate, CD19t^+ ROR1-specific CAR T cells were transferred intraperitoneally (i.p) into mice bearing 5-days old PancROR1 tumors. In E, Tumor volume and tumor mass were analyzed (n=3 mice/group/experiment combined from 2 independent experiments). (F) The percentage and total cell number of transferred TNF-α and IFN-γ CD19t^+ ROR1-specific CART cells in the tumor tissue at day 14 after tumor inoculation are shown.

[2] = system: CTLs; experiment: co-transfer of pentanoate-treated and control CTLs into Rag1-deficient mice; type: in vivo
Description: To investigate the capacity of SCFAs on survival and persistence of CD8^+ T cells, we mixed pentanoate-treated CTLs (CD45.2^+) with control CTLs (CD45.1^+) at 1:1 ratio and co-transferred them into Rag1-deficient mice. To better mimic the in vivo tumor microenvironment, we also adoptively co-transferred Tregs (CD45.2^+ from FIR×tiger reporter mice) that are frequently found in solid tumors. In addition, Foxp3^−CD4^+ T cells were co-transferred as the cellular source of IL-2 (FIG. 9, A and B). […] The capacity of CFSE to label proliferative cells was used for in vivo monitoring of CD8^+ T cell proliferation in Rag1-deficient mice after pretreatment with pentanoate. […] Given the importance of CD25 in supporting an effective IL-2R signalling, as well as the proliferation and survival of lymphocytes, we next asked whether pentanoate is capable of modulating CD25 expression in CTLs.
(A) experimental setup for investigating CTL persistence in vivo is shown. (B-D) The frequency (B, C) and total cell numbers (D) of transferred T cells (WT CD45.1^+ CTLs, WT CD45.2^+ pentanoate-treated CTLs and Foxp3^+CD45.2^+ Tregs from FIR×tiger mice) in Rag1-deficient mice on days 15 after the adoptive transfer are shown. The co-transferred Foxp3^−CD4^+ cells were excluded from the gate (B, C). In D, n=_3 mice/group/experiment, data from 2 pooled independent experiments are shown. […] (G and H) Frequencies and cell numbers of CD25^+ CD8^+ T cells were analysed by flow cytometry on day 15 after transfer of control CTLs (CD45.1^+) and pentanoate-treated CTLs (CD45.2^+) into Rag1-deficient mice (n=3 mice/group/experiment, data pooled from 2 independent experiments). […] The phosphorylated (p)-STAT5 levels were analysed by flow cytometry (n=5, performed in 3 independent experiments). (J) The secretion of IL-2 in pentanoate-treated CTLs cultured for indicated time points was measured by ELISA (n=4, pooled from 2 independent experiments).

[3] = system: Tc9 and Tc17 cells; experiment: CD8+ T cells polarized under Tc17- or Tc9-inducing conditions; type: cell-based, murine; conditions: 3 days
Description: (A and B) CD8^+ T cells isolated from spleens and LNs were polarized under Tc17-inducing conditions and treated with pentanoate for 3 days. Representative contour plots (A) and bar graphs (B) indicate the frequency of IL-17^+ and IFN-γ+ cells. Three similar experiments were performed. (C and D) CD8^+ T cells isolated from spleens and LNs were polarized under Tc9-inducing conditions and treated with pentanoate for 3 days. Representative contour plots (C) and bar graphs (D) are showing the frequency of IL-9^+ and IFN-γ+ cells. Three similar experiments were performed. (E and F) The expression of granzyme B, IFN-γ and Eomes in pentanoate-treated human CTLs was analysed by flow cytometry. Five independent experiments were performed (E). For Eomes, mean fluorescence intensity (MFI) values are shown (F, n=3).

CCCCC(=O)O [pentanoate]
TNF-α and IFN-γ production of CAR T cells [1]: enhanced
expression of CD25 on CAR T cells [1]: enhanced
frequencies and numbers of CD25+CD8+ T cells in iLN, mLN and spleen ([2]; day 15 after transfer, vs control CTLs): increased frequencies and numbers
in vivo proliferation of CFSE labelled CD8+ T cells ([2]; days 4 after transfer, vs control CTLs): stronger proliferative ability
cell number and frequency of transferred CD8+ T lymphocytes ([2]; days 15 after transfer, without cognate antigen): high cell number and frequency
phenotype of Tc9 and Tc17 cells [3]: phenotypical switch towards IFN-γ-producing CTLs
